Here are results for four compounds from publication PMC4406157, “Irreversible endo-Selective Diels–Alder Reactions of Substituted Alkoxyfurans: A General Synthesis of endo-Cantharimides” (Chemistry (Weinheim an Der Bergstrasse, Germany), 2015).

Where only a bound is given, the exact number is not on record here.

For data set [1], the target named is T1, Aryl Hydrocarbon Receptor (AhR) (Homo sapiens, UniProt P35869).
T1 construct: LS180 CYP1A1 FRET; endogenous in cells; host or cells: LS180
T1 sequence (P35869 11-848): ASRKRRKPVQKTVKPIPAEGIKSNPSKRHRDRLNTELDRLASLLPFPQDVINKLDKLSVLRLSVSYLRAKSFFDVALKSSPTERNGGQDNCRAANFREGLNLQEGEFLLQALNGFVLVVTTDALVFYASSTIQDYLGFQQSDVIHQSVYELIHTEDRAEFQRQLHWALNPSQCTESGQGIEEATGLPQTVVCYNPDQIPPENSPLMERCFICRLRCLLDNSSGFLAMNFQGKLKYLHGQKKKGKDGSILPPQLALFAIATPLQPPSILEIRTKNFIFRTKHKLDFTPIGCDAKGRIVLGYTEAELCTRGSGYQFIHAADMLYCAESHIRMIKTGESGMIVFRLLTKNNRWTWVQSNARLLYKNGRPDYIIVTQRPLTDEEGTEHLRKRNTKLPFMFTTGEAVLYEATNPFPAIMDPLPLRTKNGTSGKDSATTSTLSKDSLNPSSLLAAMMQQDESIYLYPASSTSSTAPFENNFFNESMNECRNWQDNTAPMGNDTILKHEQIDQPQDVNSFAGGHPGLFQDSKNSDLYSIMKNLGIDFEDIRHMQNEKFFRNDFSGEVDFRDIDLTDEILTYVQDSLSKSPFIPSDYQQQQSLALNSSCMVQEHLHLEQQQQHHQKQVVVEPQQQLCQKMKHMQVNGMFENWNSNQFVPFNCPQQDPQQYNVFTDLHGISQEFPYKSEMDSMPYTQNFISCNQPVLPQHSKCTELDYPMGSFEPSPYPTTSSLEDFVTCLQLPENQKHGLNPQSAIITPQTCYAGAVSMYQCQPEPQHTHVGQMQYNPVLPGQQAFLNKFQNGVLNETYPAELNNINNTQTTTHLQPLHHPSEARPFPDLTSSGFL
As to the kind of experiment: Aryl Hydrocarbon Receptor (AhR) Human LS180 CYP1A1 FRET. The data set is classed as cell-based. To be noted: LS180 cells. From the text: An important challenge for drug development is the generation of novel heterocyclic building blocks with suitable properties for use in screening and medicinal chemistry programs.[34] The cantharimides accessed using this methodology have appropriate physicochemical properties for lead-like compounds, including lipophilicity,[35] molecular weight and polar surface area[36] (Figure 3). Another attractive feature of these scaffolds is the high proportion of sp^3-hybridized carbon atoms, which is typically associated with improved protein binding selectivity and frequency, better solubility and a reduced chance of off-target effects.[37] Indeed, cantharimides 7, 10, endo-3 f and exo-3 f were screened against the hERG receptor (IC50>50 μM) and the aryl hydrocarbon receptor (EC50>100 μM), which are responsible for common off target effects, and no affinity was observed. […]
endo-3f Aryl Hydrocarbon Receptor (AhR) Human LS180 CYP1A1 FRET - EC50 >100
exo-3f Aryl Hydrocarbon Receptor (AhR) Human LS180 CYP1A1 FRET - EC50 >100
7 Aryl Hydrocarbon Receptor (AhR) Human LS180 CYP1A1 FRET - EC50 >100
10 Aryl Hydrocarbon Receptor (AhR) Human LS180 CYP1A1 FRET - EC50 >100
(§1) (1 picture or pasted object on this page, not shown here)

In data set [2] the target is KCNH2 (human Ether-à-go-go-Related Gene) (Homo sapiens, UniProt Q12809). As to the kind of experiment: KCNH2 (hERG) Human Antagonist Barracuda Electrophysiology Population Patch Clamp. It is filed as cell-based. To be noted: read-out: IC50 hERG receptor (KCNH2 antagonist).
Description: (§2) An important challenge for drug development is the generation of novel heterocyclic building blocks with suitable properties for use in screening and medicinal chemistry programs.[34] The cantharimides accessed using this methodology have appropriate physicochemical properties for lead-like compounds, including lipophilicity,[35] molecular weight and polar surface area[36] (Figure 3). Another attractive feature of these scaffolds is the high proportion of sp^3-hybridized carbon atoms, which is typically associated with improved protein binding selectivity and frequency, better solubility and a reduced chance of off-target effects.[37] Indeed, cantharimides 7, 10, endo-3 f and exo-3 f were screened against the hERG receptor (IC50>50 μM) and the aryl hydrocarbon receptor (EC50>100 μM), which are responsible for common off target effects, and no affinity was observed.
Compound Assay Parameter Value/µM
endo-3f KCNH2 (human Ether -à-go-go-Related Gene) Human Antagonist IC50 >50 […]
as §1
(In general: Block of hERG is tested as a sign of cardiac risk.)

The nature of data set [3]: in vitro clearance in the presence of human microsomes. The data set is classed as in vitro ADME. The note with it: IVC testing performed by Cyprotex.
Description: as §2
[38] IVC testing performed by Cyprotex, 15 Beech Lane, Macclesfield, Cheshire, SK10 2DR, UK

Sequence of KCNH2 (human Ether-à-go-go-Related Gene) (Q12809 whole entry): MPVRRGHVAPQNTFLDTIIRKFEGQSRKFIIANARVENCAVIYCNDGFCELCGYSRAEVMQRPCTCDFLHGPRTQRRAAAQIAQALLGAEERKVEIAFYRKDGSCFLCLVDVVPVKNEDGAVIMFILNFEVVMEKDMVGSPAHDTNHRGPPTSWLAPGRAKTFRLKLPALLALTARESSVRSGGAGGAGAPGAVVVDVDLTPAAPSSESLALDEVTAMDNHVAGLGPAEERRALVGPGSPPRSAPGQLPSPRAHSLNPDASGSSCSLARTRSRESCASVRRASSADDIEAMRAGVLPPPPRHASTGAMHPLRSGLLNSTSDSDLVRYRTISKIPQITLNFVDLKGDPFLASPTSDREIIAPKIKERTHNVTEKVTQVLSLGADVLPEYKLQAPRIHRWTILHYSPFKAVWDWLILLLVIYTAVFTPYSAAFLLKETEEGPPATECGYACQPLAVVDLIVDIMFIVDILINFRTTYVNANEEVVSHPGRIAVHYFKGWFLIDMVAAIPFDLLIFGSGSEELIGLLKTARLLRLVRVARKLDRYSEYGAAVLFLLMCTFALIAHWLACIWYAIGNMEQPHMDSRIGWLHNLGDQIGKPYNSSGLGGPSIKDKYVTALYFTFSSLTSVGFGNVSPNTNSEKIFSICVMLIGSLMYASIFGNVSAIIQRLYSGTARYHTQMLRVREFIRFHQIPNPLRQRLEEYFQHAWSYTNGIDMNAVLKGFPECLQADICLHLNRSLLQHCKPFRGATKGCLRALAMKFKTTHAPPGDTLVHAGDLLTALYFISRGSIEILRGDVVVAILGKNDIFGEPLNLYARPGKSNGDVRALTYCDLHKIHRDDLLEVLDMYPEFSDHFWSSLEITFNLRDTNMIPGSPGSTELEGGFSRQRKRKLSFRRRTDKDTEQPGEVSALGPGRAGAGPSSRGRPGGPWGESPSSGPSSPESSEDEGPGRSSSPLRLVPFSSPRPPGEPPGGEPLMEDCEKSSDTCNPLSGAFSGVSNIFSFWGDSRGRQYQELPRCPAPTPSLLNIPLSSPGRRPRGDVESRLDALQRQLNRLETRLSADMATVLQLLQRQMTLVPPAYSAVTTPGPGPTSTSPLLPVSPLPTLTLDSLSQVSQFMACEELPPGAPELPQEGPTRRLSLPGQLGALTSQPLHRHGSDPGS

As to `CCOC1CC2OC1(c1ccccc1)C1C(=O)N(C)C(=O)C21` (stereo not drawn) [compound 7], the EC50 (as a rule, the midpoint of the concentration-response curve) in data set [1] is over 100 µM. Also, in data set [2], the IC50 (in general, the concentration needed to halve the response being measured) is over 50 µM.
For the compound `CN1C(=O)C2C3CC(O)C(c4ccccc4)(O3)C2C1=O` (stereo not drawn) [compound 10], in data set [3], the in vitro clearance is under 0.53 mL/min/g. This compound also gave an EC50 in data set [1] of over 100 µM. The IC50 in data set [2] is over 50 µM.
The compound `CCOC1=CC2OC1(c1ccccc1)C1C(=O)N(C)C(=O)C21` (stereo not drawn) [endo-3 f] returned an EC50 in data set [1] of over 100 µM. In data set [2], the concentration for half-maximal inhibition (IC50) is over 50 µM.
`CCOC1=C[C@H]2O[C@]1(c1ccccc1)[C@@H]1C(=O)N(C)C(=O)[C@@H]12` [exo-3 f] had an EC50 in data set [1] of over 100 µM. Moreover, in data set [2], the IC50 was over 50 µM.
